Measured values: patent US20130210887A1, “DENDRIMERS AS NON-VIRAL VEHICLES FOR GENE THERAPY” (UNIVERSIDAD DE CASTILLA LA MANCHA, priority 2010, published 2013)

Test system: siRNA
Assay: Gel shift (electrophoretic shift in agarose gel) of siRNA by coupling to the dendrimer
Assay type: binding
Conditions: 2 μM siRNA; 30 min incubation at ambient temperature; 1% agarose gel, 15 min at 60V
From the text: FIG. 1, relates to the electrophoretic shift analysis of siRNA by the coupling to the compound of general formula (I). The numbers in (A) correspond to different N/P ratios (nitrogenated amines in compound of general formula (0/phosphates in siRNA): (1) 1:0 (siRNA alone), (2) 6:1, (3) 12:1, (4) 24:1, (5) 48:1, (6) 96:1, (7) 192:1 and (8) 384:1. The densitometric analysis of the results of the gel shift experiment are shown in (B).
The compound complexes of general formula (I)-siRNA were formed by mixing equal quantities of volume of the solution that contained compound of general formula (I) and of that containing the siRNA (Org Biomol Chem. 2007. 5: 1886-1893; Pharm Res. 2009. 26: 1181-1191), and incubating the mixture under stirring during 30 minutes at ambient temperature. Both molecules were dissolved in DEPC water (free from RNAses).
The shift in agarose gel was used to ascertain the N/P ratio (nitrogenated amines in compound of general formula (I)/phosphates in siRNA) adapted to obtain the greatest efficacy of bonding possible between both molecules (Mol Biol Rep. 2009. 36: 1083-1093; Am J Med Genet B Neuropsychiatr Genet. 2008. 147B: 769-777). The mixing of different concentrations of compound of general formula (I) and of 250 ng of siRNA was tested. […] The gels were photographed and the bands were quantified with a suitable image analysis system (Quantity One). […]

## NCCNC(=O)CCN(CCC(=O)NCCN)CCN(CCC(=O)NCCN)Cc1ccc(/C=C/c2cc(/C=C/c3ccc(CN(CCC(=O)NCCN)CCN(CCC(=O)NCCN)CCC(=O)NCCN)cc3)cc(/C=C/c3ccc(CN(CCC(=O)NCCN)CCN(CCC(=O)NCCN)CCC(=O)NCCN)cc3)c2)cc1 [compound of general formula (I)]
  concentration of compound of general formula (I) at which all the siRNA is fixed (P/N ratio of 12:1): 22 µM
